Assay results taken from patent publication US4595530A, “Thiodeazapurine derivatives” (Takeda Chemical Industries, Ltd., priority 1983, dated 1986).
≈ marks a conversion by molar mass, not a printed value.

Experiments:
[1] = test system: rat liver tRNA-guanine transglycosylase; experiment: uptake of compound into tRNA ([3H]-guanine labeled tRNA exchange); format: biochemical; conditions: 0.02 OD260 of compound, 37° C., 17 hours, 0.5 unit enzyme
Procedure: [^3 H]-Guanine labeled tRNA^(*^) (8000 cpm), 70 mM of tris hydrochloride, 60 mM of magnesium chloride, 0.5 unit of rat liver tRNA-guanine transglycosylase and 0.02 OD260 of the compound of Example 1 (which appears hereinafter) (100 μl) were incubated at 37° C. for 17 hours. The reaction mixture was applied to a Whatman 3 MM filter paper (Whatman Co., U.S.A.) and washed 3 times with a 5% aqueous solution of trichloroacetic acid and, then, once each with ethanol/ether (1:1) and ether alone. After drying, the uptake of the test compound was determined in a toluenic scintillation fluid.
^(*^) tRNA with the firstletter (base) of its anticodon labeled with [^3 H]guanine.
The uptake of the compound of Example 2 into tRNA was determined in the same manner as Experimental Example 1. The result was 57%.

[2] = test system: L5178Y mouse tumor cells; experiment: growth inhibition of cultured L5178Y cells; format: cell-based; conditions: 72 hours incubation with drug, cell count vs non-treated control, read-out: IC50 (50% growth inhibitory concentration)
Procedure: 1×10^4 L5178Y mouse tumor cells were suspended in 2 ml of a RPMI-1640 medium containing 10% of bovine fetal serum, 20 μM of 2-mercaptoethanol and 100 μg/ml kanamycin (Nissui Pharmaceutical Co., Ltd. Japan), and incubated at 37° C. for 24 hours before addition of the drug. Using the above culture fluid as a diluent, the compound of Example 1 was diluted 1/4-fold in a series of 5 stages, the maximum concentration of the compound in the medium being 200 μg/ml. The dilutions were further incubated for 72 hours, at the end of which time the cells were counted and the IC50 (50% growth inhibitory concentration) was calculated with the count for the non-treated control group being taken as 100%.

[3] = test system: Meth A tumor cells; experiment: Meth A tumor growth inhibition in mice; format: in vivo; conditions: BALB/c mouse, s.c. transplant, 100 mg/kg i.p. once daily for 14 days from day 4, tumor weight on 35th day
Procedure: 5×10^4 Meth A tumor cells were subcutaneously transplanted into a BALB/c mouse weighing 20 g and starting on the 4th day after transplantation, a solution of the compound of Example 1 in 0.1 ml of distilled water was intraperitoneally injected into the mouse once daily in a dose of 100 mg/kg for 14 consecutive days. On the 35th day after transplantation, the tumor node was enucleated and weighed.

## NCc1c[nH]c2nc(N)[nH]c(=S)c12 [Example 2, 2-amino-5-aminomethylpyrrolo[2,3-d]pyrimidine-4-thione]
[1]
  uptake of the test compound into tRNA (% of tRNA): 57%

## Nc1nc2[nH]cc(CN[C@H]3C=C[C@H](O)[C@@H]3O)c2c(=S)[nH]1 [Example 1, 2-amino-5-[(3S,4R,5S)-4,5-dihydroxycyclopent-1-en-3-ylaminomethy-]pyrrolo[2,3-d]pyrimidine-4-thione]
[2]
  IC50: 22 µg/mL (≈ 75 µM)
[1]
  uptake of the test compound into tRNA (% of tRNA): 81%
[3]
  tumor growth inhibition rate: 71%
